{"source": "paper PMC3336786", "about": "(The FASEB Journal, 2012)", "key": {"α1β2γ2 GABAA receptors": {"molecular_target": "α1β2γ2 GABAA receptors (Homo sapiens, UniProt P14867+P18507+P47870)", "sequence (P14867 28-456, one chain of several)": "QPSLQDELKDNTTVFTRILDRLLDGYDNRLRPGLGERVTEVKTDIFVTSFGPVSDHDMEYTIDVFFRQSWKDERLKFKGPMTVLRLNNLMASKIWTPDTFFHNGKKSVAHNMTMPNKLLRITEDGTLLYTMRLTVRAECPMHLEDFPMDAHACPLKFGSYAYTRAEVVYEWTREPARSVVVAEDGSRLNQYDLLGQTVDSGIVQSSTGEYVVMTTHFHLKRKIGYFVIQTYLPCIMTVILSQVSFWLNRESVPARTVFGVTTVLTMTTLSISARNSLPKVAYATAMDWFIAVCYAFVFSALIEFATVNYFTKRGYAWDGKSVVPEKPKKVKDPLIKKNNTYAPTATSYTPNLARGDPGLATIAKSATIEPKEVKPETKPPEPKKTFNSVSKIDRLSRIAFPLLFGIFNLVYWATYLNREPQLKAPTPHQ", "sequence (P18507 40-475, one chain of several)": "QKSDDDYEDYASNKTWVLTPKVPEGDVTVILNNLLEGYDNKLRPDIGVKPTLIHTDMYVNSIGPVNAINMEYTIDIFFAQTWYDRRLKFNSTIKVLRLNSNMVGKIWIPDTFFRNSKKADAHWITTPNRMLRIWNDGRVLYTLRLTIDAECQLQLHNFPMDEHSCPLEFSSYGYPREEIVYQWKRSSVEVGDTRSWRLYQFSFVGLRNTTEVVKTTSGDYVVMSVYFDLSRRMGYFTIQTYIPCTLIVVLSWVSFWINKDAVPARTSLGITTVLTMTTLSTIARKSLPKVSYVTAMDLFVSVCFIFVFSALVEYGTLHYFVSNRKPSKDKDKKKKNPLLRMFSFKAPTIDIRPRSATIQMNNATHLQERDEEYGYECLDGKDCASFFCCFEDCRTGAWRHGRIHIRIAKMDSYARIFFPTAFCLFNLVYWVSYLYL", "assay": "Two-electrode voltage clamp of α1β2γ2 GABAA receptors in Xenopus oocytes", "type": "cell-based"}, "RDLA2'V": {"molecular_target": "T1, RDLA2'V (Drosophila melanogaster, UniProt P25123, A301V)", "T1 sequence (P25123 45-606 A301V)": "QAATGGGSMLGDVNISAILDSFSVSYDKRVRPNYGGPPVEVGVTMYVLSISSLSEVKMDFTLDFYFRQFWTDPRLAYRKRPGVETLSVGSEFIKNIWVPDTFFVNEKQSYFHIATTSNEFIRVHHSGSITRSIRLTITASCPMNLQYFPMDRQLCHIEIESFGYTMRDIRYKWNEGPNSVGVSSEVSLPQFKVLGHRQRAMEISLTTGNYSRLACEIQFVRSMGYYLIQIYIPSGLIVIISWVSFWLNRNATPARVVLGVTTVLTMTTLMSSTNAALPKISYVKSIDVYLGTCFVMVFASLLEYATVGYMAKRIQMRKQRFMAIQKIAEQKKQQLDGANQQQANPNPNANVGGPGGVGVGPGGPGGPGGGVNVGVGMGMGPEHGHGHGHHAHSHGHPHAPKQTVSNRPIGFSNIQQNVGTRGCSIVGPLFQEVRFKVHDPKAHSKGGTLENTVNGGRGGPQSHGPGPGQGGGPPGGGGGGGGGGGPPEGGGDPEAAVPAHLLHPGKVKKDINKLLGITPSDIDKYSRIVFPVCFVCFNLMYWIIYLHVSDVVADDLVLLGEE", "assay": "cell-based", "type": "cell-based"}, "α1V2'Aβ2": {"molecular_target": "T2, α1V2'Aβ2 (Homo sapiens, UniProt P14867+P47870, V284A)", "T2 sequence (P14867 28-456 V284A)": "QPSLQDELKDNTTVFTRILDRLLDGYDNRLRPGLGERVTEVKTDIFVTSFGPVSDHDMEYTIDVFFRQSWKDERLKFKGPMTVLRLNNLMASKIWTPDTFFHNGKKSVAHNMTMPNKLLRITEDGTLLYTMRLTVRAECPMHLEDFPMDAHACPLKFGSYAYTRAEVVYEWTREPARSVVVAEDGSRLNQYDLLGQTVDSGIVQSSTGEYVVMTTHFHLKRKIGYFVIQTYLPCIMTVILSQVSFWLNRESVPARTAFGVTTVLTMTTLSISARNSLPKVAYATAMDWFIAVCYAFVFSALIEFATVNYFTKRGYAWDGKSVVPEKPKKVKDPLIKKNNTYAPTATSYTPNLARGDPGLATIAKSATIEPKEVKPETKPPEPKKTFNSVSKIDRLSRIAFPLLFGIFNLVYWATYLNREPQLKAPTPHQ", "T2 sequence (P47870 26-512)": "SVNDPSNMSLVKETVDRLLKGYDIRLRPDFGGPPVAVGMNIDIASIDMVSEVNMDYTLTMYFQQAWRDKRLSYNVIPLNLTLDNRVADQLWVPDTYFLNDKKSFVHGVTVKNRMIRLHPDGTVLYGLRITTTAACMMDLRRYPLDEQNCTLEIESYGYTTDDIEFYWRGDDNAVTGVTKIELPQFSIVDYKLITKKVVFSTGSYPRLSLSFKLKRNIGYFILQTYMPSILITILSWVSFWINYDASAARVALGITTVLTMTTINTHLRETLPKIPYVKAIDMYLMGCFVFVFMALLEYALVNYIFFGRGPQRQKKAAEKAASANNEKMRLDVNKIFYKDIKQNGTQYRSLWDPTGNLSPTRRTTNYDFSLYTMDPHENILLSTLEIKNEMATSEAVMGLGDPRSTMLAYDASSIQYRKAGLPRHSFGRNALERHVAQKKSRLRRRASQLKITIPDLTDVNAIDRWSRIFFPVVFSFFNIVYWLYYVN", "type": "cell-based"}, "[1]": {"system": "Canton-S adult D. melanogaster", "assay": "Coated vial bioassay, wild-type", "type": "in vivo", "details": "for LD50: coated vial"}, "α1V2'Aβ2γ2": {"molecular_target": "α1V2'Aβ2γ2 (Homo sapiens, UniProt P14867+P18507+P47870, V284A)", "sequence (P18507 40-475, one chain of several)": "as the sequence (P18507 40-475, one chain of several) above", "type": "cell-based"}, "[2]": {"molecular_target": "T3, human α1β2 GABAA receptors (Homo sapiens, UniProt P14867+P47870)", "T3 sequence (P14867 28-456)": "T2 sequence (P14867 28-456 V284A) with A257V", "T3 sequence (P47870 26-512)": "T2 sequence (P47870 26-512)", "assay": "Two-electrode voltage clamp of α1β2 GABAA receptors in Xenopus oocytes", "type": "cell-based", "details": "for IC50: IC50, inhibition of GABA EC50 response"}, "RDL": {"molecular_target": "T4, RDL (Drosophila melanogaster, UniProt P25123)", "T4 sequence (P25123 45-606)": "T1 sequence (P25123 45-606 A301V) with V257A", "type": "cell-based"}, "RDLT6'V": {"molecular_target": "T5, RDLT6'V (Drosophila melanogaster, UniProt P25123, T305V)", "T5 sequence (P25123 45-606 T305V)": "T1 sequence (P25123 45-606 A301V) with V257A, T261V", "assay": "Two-electrode voltage clamp of RDLT6'V mutant receptors in Xenopus oocytes", "type": "cell-based"}, "[3]": {"system": "dieldrin-resistant (Rdl) adult D. melanogaster", "assay": "Coated vial bioassay, dieldrin-resistant", "type": "in vivo", "details": "flies with A2'S mutation; ginkgolides up to 5000 ppm (limited by solubility)"}, "humans": {"system": "humans", "details": "cited from earlier work"}, "[4]": {"details": "concentration-inhibition curve at GABA EC50"}}, "note": "Numbering of substitutions follows the chain as printed. “And” between values parts separate entries of the source, which are not always exact repeats. Identical values can stand only once. Like-named read-outs stand apart in the source and are kept apart here."}
{"compound": "ginkgolide B [GB]", "values": [{"measurement": "nH (Hill coefficient)", "setting": "α1β2γ2 GABAA receptors; [4]", "value": "0.61 ± 0.06"}, {"measurement": "nH (Hill coefficient)", "setting": "RDLA2'V; [4]", "value": "1.02 ± 0.20"}, {"measurement": "nH (Hill coefficient)", "setting": "α1V2'Aβ2; [4]", "value": "1.13 ± 0.09"}, {"measurement": "LD50", "setting": "[1]; 24 h", "value": 0.171, "unit": "mg/mL"}, {"measurement": "LD50", "setting": "[1]; 48 h", "value": 0.031, "unit": "mg/mL"}, {"measurement": "LD50", "setting": "[1]; 72 h", "value": 0.010, "unit": "mg/mL"}, {"measurement": "nH (Hill coefficient)", "setting": "α1V2'Aβ2γ2; [4]", "value": "1.43 ± 0.29"}, {"measurement": "nH (Hill coefficient)", "setting": "[2]; [4]", "value": "0.94 ± 0.06"}, {"measurement": "nH (Hill coefficient)", "setting": "RDL; [4]", "value": "1.43 ± 0.14"}, {"measurement": "nH (Hill coefficient)", "setting": "RDLT6'V; concentration-inhibition curve", "value": "1.00 ± 0.70"}]}
{"compound": "NCCCC(=O)O", "note": "[GABA, γ-aminobutyric acid, reference compound]", "values": [{"measurement": "nH (Hill coefficient)", "setting": "α1β2γ2 GABAA receptors; GABA concentration-response", "value": "1.64 ± 0.16"}, {"measurement": "nH (Hill coefficient)", "setting": "RDLA2'V; GABA concentration-response", "value": "2.20 ± 0.02"}, {"measurement": "nH (Hill coefficient)", "setting": "α1V2'Aβ2; GABA concentration-response", "value": "1.14 ± 0.12"}, {"measurement": "increase in GABA sensitivity, α1 2' mutation vs wild type", "setting": "α1V2'Aβ2; α1V2'A-containing α1β2 and α1β2γ2 receptors", "value": "20–50 fold"}, {"measurement": "nH (Hill coefficient)", "setting": "α1V2'Aβ2γ2; GABA concentration-response", "value": "1.10 ± 0.11"}, {"measurement": "nH (Hill coefficient)", "setting": "[2]; GABA concentration-response", "value": "1.43 ± 0.18"}, {"measurement": "nH (Hill coefficient)", "setting": "RDL; GABA concentration-response", "value": "1.8 and 1.80 ± 0.20"}, {"measurement": "nH (Hill coefficient)", "setting": "RDLT6'V; GABA concentration-response", "value": "1.44 ± 0.29"}]}
{"compound": "ClC1=C(Cl)[C@]2(Cl)[C@@H]3[C@@H]4C[C@@H]([C@H]5O[C@@H]45)[C@@H]3[C@@]1(Cl)C2(Cl)Cl", "note": "[dieldrin, reference compound]", "values": [{"measurement": "LD50", "setting": "[1]; 24 h, wild-type flies", "value": 0.002, "unit": "mg/mL"}, {"measurement": "LD50", "setting": "[1]; 48 h, wild-type flies", "value": 0.002, "unit": "mg/mL"}, {"measurement": "LD50", "setting": "[1]; 72 h, wild-type flies", "value": 0.0017, "unit": "mg/mL"}, {"measurement": "mortality / toxicity (in words)", "setting": "[1]; wild-type (susceptible) flies", "value": "highly effective in killing"}, {"measurement": "mortality / toxicity (in words)", "setting": "[3]", "value": "no significant mortality up to 72 h"}]}
{"compound": "C[C@@H]1C(=O)O[C@H]2C[C@@]34[C@H]5C[C@@H](C(C)(C)C)[C@]36[C@@H](OC(=O)[C@@H]6O)O[C@@]4(C(=O)O5)[C@]21O", "note": "[GA, ginkgolide A]", "values": [{"measurement": "IC50", "setting": "α1β2γ2 GABAA receptors", "value": 38.9, "unit": "µM"}, {"measurement": "nH (Hill coefficient)", "setting": "α1β2γ2 GABAA receptors; [4]", "value": "0.49 ± 0.07"}, {"measurement": "nH (Hill coefficient)", "setting": "RDLA2'V; [4]", "value": "1.48 ± 0.19"}, {"measurement": "nH (Hill coefficient)", "setting": "α1V2'Aβ2; [4]", "value": "0.87 ± 0.14"}, {"measurement": "LD50", "setting": "[1]; 24 h", "value": 0.345, "unit": "mg/mL"}, {"measurement": "LD50", "setting": "[1]; 48 h", "value": 0.063, "unit": "mg/mL"}, {"measurement": "LD50", "setting": "[1]; 72 h", "value": 0.019, "unit": "mg/mL"}, {"measurement": "nH (Hill coefficient)", "setting": "α1V2'Aβ2γ2; [4]", "value": "0.86 ± 0.10"}, {"measurement": "IC50", "setting": "[2]", "value": 15.8, "unit": "µM"}, {"measurement": "nH (Hill coefficient)", "setting": "[2]; [4]", "value": "0.65 ± 0.08"}, {"measurement": "IC50", "setting": "RDL; IC50, inhibition of GABA EC50 response, second stable level of inhibition", "value": 0.003, "unit": "µM"}, {"measurement": "IC50", "setting": "RDL; IC50, inhibition of GABA-evoked RDL currents, as printed in text and Fig. 6", "value": 0.0031, "unit": "µM"}, {"measurement": "nH (Hill coefficient)", "setting": "RDL; [4]", "value": "1.13 ± 0.18"}, {"measurement": "IC50", "setting": "RDL; pIC50, inhibition of GABA EC50 response, second stable level of inhibition", "value": 0.00324, "unit": "µM"}]}
{"compound": "CC(C)(C)[C@]1(O)CC2OC(=O)CC23C(=O)OC2OC(=O)[C@H](O)C231", "note": "(stereo partly shown) [BB, bilobalide]", "values": [{"measurement": "IC50", "setting": "α1β2γ2 GABAA receptors", "value": 22.9, "unit": "µM"}, {"measurement": "nH (Hill coefficient)", "setting": "α1β2γ2 GABAA receptors; [4]", "value": "0.68 ± 0.10"}, {"measurement": "nH (Hill coefficient)", "setting": "RDLA2'V; [4]", "value": "1.85 ± 0.21"}, {"measurement": "IC50", "setting": "α1V2'Aβ2; IC50, inhibition of GABA EC50 response", "value": 2.04, "unit": "µM"}, {"measurement": "nH (Hill coefficient)", "setting": "α1V2'Aβ2; [4]", "value": "1.06 ± 0.10"}, {"measurement": "LD50", "setting": "[1]; 24 h", "value": 0.331, "unit": "mg/mL"}, {"measurement": "LD50", "setting": "[1]; 48 h", "value": 0.009, "unit": "mg/mL"}, {"measurement": "LD50", "setting": "[1]; 72 h", "value": 0.006, "unit": "mg/mL"}, {"measurement": "IC50", "setting": "α1V2'Aβ2γ2", "value": 3.55, "unit": "µM"}, {"measurement": "nH (Hill coefficient)", "setting": "α1V2'Aβ2γ2; [4]", "value": "1.16 ± 0.20"}, {"measurement": "IC50", "setting": "[2]", "value": 9.33, "unit": "µM"}, {"measurement": "nH (Hill coefficient)", "setting": "[2]; [4]", "value": "0.85 ± 0.10"}, {"measurement": "IC50", "setting": "RDL", "value": 0.316, "unit": "µM"}, {"measurement": "nH (Hill coefficient)", "setting": "RDL; [4]", "value": "0.89 ± 0.09"}]}
{"compound": "N#Cc1nn(-c2c(Cl)cc(C(F)(F)F)cc2Cl)c(N)c1[S+]([O-])C(F)(F)F", "note": "(stereo not shown) [fipronil]", "values": [{"measurement": "U.S. Environmental Protection Agency ranking", "setting": "humans", "value": "moderately toxic"}]}
